Values joined by “and” are separate entries in the source; they are usually repeats but may differ in a detail not shown here. Equal entries are not always repeated.

In assay [1] the target is T1, HepI (Escherichia coli, UniProt P24173).
T1 construct: made in house; host or cells: E. coli One Shot BL-21-AI
Kind of assay: Circular dichroism thermal melt of HepI. The assay is classed as binding, E. coli K12. As to conditions: CD melt, HepI plus ligand alone. As to the method: Circular dichroism melt experiments were performed in a Jasco J-810 spectropolarimeter in Starna 21-Q-2 cells (minimum volume 400 µL) sealed with Teflon tape to prevent evaporation. Parameters include 3 accumulations of data collected between 195–275 nm as a function of temperature (10–95 °C with 5° increments) at a ramp rate of 2°/min and a scanning rate of 50 nm/min. Samples were prepared by diluting a mixture of 5 μM HepI and some combination of 250 μM substrate/product and/or 100 μM inhibitor in a buffer of 10 mM Tris–HCl and 100 mM KCl (pH = 7.5). CD data was analyzed via in house script written in MATLAB R2018A that average a set of triplicate data, normalizes to a percent unfolded (assuming the protein is fully folded at 5 °C) at 222 nm as a function of temperature and fits to a sigmoid curve to determine the melt temperature (TM).

The target in assay [2] is T2, Heptosyltransferase I (HepI) WT (Escherichia coli, UniProt P24173).
T2 construct: made in house; host or cells: E. coli One Shot BL-21-AI
T2 sequence (P24173 whole entry): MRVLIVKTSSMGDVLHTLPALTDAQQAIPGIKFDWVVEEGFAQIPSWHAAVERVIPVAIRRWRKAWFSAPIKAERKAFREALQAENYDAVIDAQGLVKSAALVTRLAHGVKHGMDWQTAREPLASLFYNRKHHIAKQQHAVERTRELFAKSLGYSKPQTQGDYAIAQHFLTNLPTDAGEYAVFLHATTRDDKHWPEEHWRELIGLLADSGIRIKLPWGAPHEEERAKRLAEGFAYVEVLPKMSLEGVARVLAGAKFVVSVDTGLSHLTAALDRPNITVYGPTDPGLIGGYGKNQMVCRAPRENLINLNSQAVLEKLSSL
Kind of assay: HepI inhibition, ADP/NADH coupled assay (wild type). As to conditions: for kcat: HepI WT in presence of inhibitor; for Ki: 10 μM ODLA, inhibitor varied. In kind it is biochemical, E. coli K12. As to the method: As previously reported[11],[14],[15], an ADP/NADH coupled assay was used to monitor HepI activity by monitoring the absorbance change at 340 nm at 37 °C on a Cary Bio 100 UV–Vis Spectrometer. Under normal conditions, the assay buffer was composed of 50 mM HEPES, 50 mM KCl, 10 mM MgCl2, pH 7.5. The coupled enzyme reaction additionally contained 100 μM phosphoenolpyruvate, 100 μM NADH, 100 μM dithiothreitol (DTT) and 0.05 U/μL of both pyruvate kinase and lactate dehydrogenase. 100 μM ADPH was used when ODLA concentration was varied and 100 μM ODLA was used when ADPH was varied. Once a stable baseline was established (~ 5 min), the reaction was initiated by addition of HepI to a final concentration of 50 nM or 100 nM (for high and lower substrate concentrations respectively) and all reported reaction rates are after background subtraction. When running 12 samples at once, plastic cuvette stirs and a repeat pipettor was used to inject 200 μL enzyme. Inhibition of HepI was monitored using the same ADP/NADH coupled assay, all conditions of the assay were the same as previously described unless otherwise stated. Ki values for each of the compounds were determined by varying compound final concentration from 100 μm to 10 nm, and a final concentration of 10 μM ODLA. Competition assays against ADPH were done with excess ODLA (100 μM) and varying ADPH from 2–0.25 μM. Competition assays against ODLA were done with excess ADPH (100 μM) and varying ODLA from 2–0.25 μM. Reactions were started with addition of enzyme and inhibitor was varied from 30–0.01 μM. Kinetics were fit to Lineweaver-Burke (Eq. 1), competitive (Eq. 2), non-competitive (Eq. 3), mixed (Eq. 4), Dixon (Eq. 5), or Cornish-Bowden (Eq. 6) models. All fitting and plotting was done through MATLAB R2018A.1 1/V1/[S]=KM/Vmax[S]+1/Vmax 2 V[S]=Vmax[S]/KM1+[I]/Ki+[S] 3 V[S]=Vmax[S]/1+([I]/Ki)/KM+[S] 4 V[S]=Vmax[S]/KM(1+[I]/Ki)+[S](1+[I]/αKi) 5 1/V[I]=KM1+I/Ki+[S]1+I/αKi/Vmax[S] 6 [S]/V[I]=KM1+I/Ki+[S]1+I/αKi/Vmax

T1 sequence (P24173 whole entry): as above

Take `Nc1ncnc2c1ncn2[C@@H]1O[C@H](COP(=O)(O)OP(=O)(O)O[C@@H]2O[C@H]([C@@H](O)CO)[C@@H](O)[C@H](O)[C@@H]2O)[C@@H](O)[C@H]1O` [ADPH, ADP-L-glycero-β-D-manno-heptose]: in assay [1], the “Extent of unfolding of HepI with ligand” value was ~ 100% and the “Melting temperature (Tm) of HepI with ligand” value was “does not induce any changes in the melting temperature”.
As to `Nc1ncnc2c1ncn2[C@@H]1O[C@H](COP(=O)(O)OP(=O)(O)O)[C@@H](O)[C@H]1O` [ADP, Adenosine disphosphate], the “Melting temperature (Tm) of HepI with ligand” value in assay [1] is listed as “melts similarly to HepI with ADPH”.
As for `NC[C@H]1O[C@H](O[C@H]2[C@H](O)[C@@H](O[C@H]3O[C@H](CO)[C@@H](O)[C@H](N)[C@H]3O)[C@H](N)C[C@@H]2N)[C@H](N)[C@@H](O)[C@@H]1O` [Kanamycin B], the “kcat” value in assay [2] is 0.149 ± 0.007 s⁻¹. The molecule also came in with a Ki in assay [2] (HepI WT) of 0.99 ± 0.119 µM. Moreover, the “Type of inhibition with ODLA” value in assay [2] (HepI WT, excess ADPH, ODLA varied, Lineweaver–Burk, Dixon, Cornish-Bowden) is “Competitive”.
Consider `NCC[C@H](O)C(=O)N[C@@H]1C[C@H](N)[C@@H](O[C@H]2O[C@H](CN)[C@@H](O)[C@H](O)[C@H]2O)[C@H](O)[C@H]1O[C@H]1O[C@H](CO)[C@@H](O)[C@H](N)[C@H]1O` [Amikacin], for which the “kcat” value in assay [2] is 0.138 ± 0.001 s⁻¹. Further, the Ki in assay [2] (HepI WT) is 4.3 µM and 4.26 µM.

Values taken from paper PMC9068772, “Discovery of first-in-class nanomolar inhibitors of heptosyltransferase I reveals a new aminoglycoside target and potential alternative mechanism of action” (Scientific Reports, 2022).
